Measurements from patent US12234504B1 (priority 2023, dated 2025).
pIC50: −log10 of the molar value. Positions of bridges follow the written chain, without caps; N, C: chain ends. Non-standard residues stand in square brackets, D forms with d. Residues, ends and D or L forms follow the SMILES beside them. *: point of attachment. Ileψ(thiazoline)Cys = CC[C@H](C)[C@H](N)C1=N[C@H](C(=O)*)CS1; dOrn = NCCC[C@@H](N)C(=O)O

What was measured:
E. coli DNA gyrase [1] = molecular target: T1, E. coli DNA gyrase (Escherichia coli, UniProt P0AES4+P0AES6); assay type: biochemical; conditions: 50 μM compound; for Fluorescent Intensity #1 / Fluorescent Intensity #2 / Mean Fluorescent Intensity: 50-compound library screen; for Fluorescent Intensity #1: duplicate 1; for Fluorescent Intensity #1 / Fluorescent Intensity #2: low fluorescence = gyrase poison; for Fluorescent Intensity #2: duplicate 2; for Mean Fluorescent Intensity: mean of duplicates; for hit in HTS pilot screen (inhibition ≥50% cutoff): duplicate; for fluorescence intensity compared with negative controls (in words): HTS screen
T1 construct: made in house
T1 sequence (P0AES4 whole entry, one chain of several): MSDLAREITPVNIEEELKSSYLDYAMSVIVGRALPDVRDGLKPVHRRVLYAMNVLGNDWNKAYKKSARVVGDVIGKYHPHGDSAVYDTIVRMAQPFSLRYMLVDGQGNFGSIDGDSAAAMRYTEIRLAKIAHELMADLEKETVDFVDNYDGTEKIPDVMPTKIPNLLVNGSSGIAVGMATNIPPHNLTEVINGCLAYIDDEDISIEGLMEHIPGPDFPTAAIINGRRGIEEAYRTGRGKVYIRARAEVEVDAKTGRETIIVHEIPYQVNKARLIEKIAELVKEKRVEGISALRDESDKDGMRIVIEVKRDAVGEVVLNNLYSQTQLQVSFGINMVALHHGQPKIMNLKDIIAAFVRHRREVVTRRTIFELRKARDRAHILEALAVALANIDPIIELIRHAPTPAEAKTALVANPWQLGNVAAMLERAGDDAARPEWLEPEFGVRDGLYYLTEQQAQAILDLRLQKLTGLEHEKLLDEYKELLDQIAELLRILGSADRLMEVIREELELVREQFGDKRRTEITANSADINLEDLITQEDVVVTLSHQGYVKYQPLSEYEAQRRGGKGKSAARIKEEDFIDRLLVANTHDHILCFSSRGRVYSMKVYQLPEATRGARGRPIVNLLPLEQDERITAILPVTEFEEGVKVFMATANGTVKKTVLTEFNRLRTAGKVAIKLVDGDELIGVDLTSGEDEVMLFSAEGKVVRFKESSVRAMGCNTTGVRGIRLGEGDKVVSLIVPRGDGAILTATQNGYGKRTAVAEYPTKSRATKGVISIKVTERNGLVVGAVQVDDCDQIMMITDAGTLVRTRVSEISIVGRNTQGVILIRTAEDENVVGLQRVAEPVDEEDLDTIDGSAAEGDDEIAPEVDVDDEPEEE
Procedure: FIGS. 6A-6B. High throughput screening (HTS) pilot screen of the 50-compound library for E. coli DNA gyrase poisoning inhibitors in duplicate. A final compound concentration of 50 μM was used. […] (A) Fluorescence raw data.
A Fluorescence-Based, T5 Exonuclease-Amplified DNA Cleavage Assay to Identify Poisoning Inhibitors for E. coli DNA Gyrase.
For negative control experiments, 1% DMSO was used. […] 0.5 mg/mL of proteinase K was then added to the reaction mixtures to digest DNA gyrase at 50° C. for 30 min. After the DNA samples were diluted 100 times using 1×NEB buffer 4 (20 mM Tris-Acetate, pH 7.9, 50 mM KAc, 10 mM Mg(AC)2, and 1 mM DTT), 30 μL of each DNA sample was transfer to a well of a 384-well plate. 200 nM of T5 exonuclease was used to digest DNA fragment for 2 hours at 37° C. 1×SYBR™ Green was added to all DNA samples. Fluorescence intensity was measured using a Biotek microplate reader with excitation wavelength of 497 nm and emission wavelength of 525 nm.
Z′ was calculated by the following equation: […]

T5 exonuclease = molecular target: T2, T5 exonuclease (Escherichia phage T5, UniProt P06229); assay: Detergent inhibition of T5 exonuclease on lambda DNA HindIII digest; assay type: biochemical; design: detergent concentration that inhibits T5 exonuclease: dose or concentration left out as unconfirmed
T2 construct: made in house
T2 sequence (P06229 whole entry): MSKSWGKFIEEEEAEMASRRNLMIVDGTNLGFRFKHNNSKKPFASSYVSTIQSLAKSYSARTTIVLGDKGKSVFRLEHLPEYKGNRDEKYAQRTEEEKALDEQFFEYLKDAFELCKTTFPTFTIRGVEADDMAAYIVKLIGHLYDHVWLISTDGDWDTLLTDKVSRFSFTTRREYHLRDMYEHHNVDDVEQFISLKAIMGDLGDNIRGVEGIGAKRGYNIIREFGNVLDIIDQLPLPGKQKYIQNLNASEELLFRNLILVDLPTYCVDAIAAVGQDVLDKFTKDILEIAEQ
Procedure: FIGS. 2A-2F. Agarose gel-based DNA gyrase cleavage assays were performed as described in Materials and Methods. […] Lane 7 is Lambda DNA HindIII digest as the molecular standard. […] (C) The appearance and disappearance of the gyrase-mediated linear band of plasmid pBR322 is dependent of the E. coli DNA gyrase concentration. High concentrations of E. coli DNA gyrase also cause disappearance of the supercoiled plasmid in the gyrase-mediated DNA cleavage assays. […] 500 ng of a DNA HindIII digest was digested using 50 nM of T5E in 20 μL of 1× gyrase-mediated DNA cleavage buffer (20 mM Tris-HCl pH 8, 50 mM KAc, 10 mM MgCl2, 2 mM DTT, 1 mM ATP, 0.1 mg/mL BSA) for 30 min in the presence of different concentrations of SDS. […] contained 0.000625, 0.00125, 0.0025, 0.005, 0.0125, and 0.025%, respectively. (E) Effects of sarkosyl on T5 exonuclease (T5E). 500 ng of a DNA HindIII digest was digested using 50 nM of T5E in 20 μL of 1× gyrase-mediated DNA cleavage buffer for 30 min in the presence of different concentrations of sarkosyl. Lanes 3 to 10 contained 0.005, 0.0125, 0.015, 0.02, 0.025, 0.05, 0.125, and 0.25%, respectively. (F) 50 nM of T5 exonuclease completely digested 500 ng of a DNA HindIII digest in 1× gyrase-mediated DNA cleavage buffer in the presence of 0.00125%. Lanes 1-7 contained 0, 5, 10, 20, 30, 40, and 50 nM of T5 exonuclease, respectively.
FIG. 3. […]

E. coli DNA gyrase [2] = molecular target: T1, E. coli DNA gyrase; assay type: biochemical; conditions: for fluorescence intensity of the DNA samples (in words): validation with 10 antibiotics, FIG. 5A; for effect on SYBR Green fluorescence intensity (in words): 20 μM compound, FIG. 7A
E. coli DNA gyrase [3] = molecular target: T1, E. coli DNA gyrase; assay: Agarose gel-based DNA gyrase-mediated DNA cleavage assay; assay type: biochemical; conditions: FIG. 7B
Procedure: FIGS. 2A-2F. Agarose gel-based DNA gyrase cleavage assays were performed as described in Materials and Methods. […] Lane 7 is Lambda DNA HindIII digest as the molecular standard. […] 500 ng of a DNA HindIII digest was digested using 50 nM of T5E in 20 μL of 1× gyrase-mediated DNA cleavage buffer (20 mM Tris-HCl pH 8, 50 mM KAc, 10 mM MgCl2, 2 mM DTT, 1 mM ATP, 0.1 mg/mL BSA) for 30 min in the presence of different concentrations of SDS. […] (E) Effects of sarkosyl on T5 exonuclease (T5E). 500 ng of a DNA HindIII digest was digested using 50 nM of T5E in 20 μL of 1× gyrase-mediated DNA cleavage buffer for 30 min in the presence of different concentrations of sarkosyl. […] Lanes 1-7 contained 0, 5, 10, 20, 30, 40, and 50 nM of T5 exonuclease, respectively.
DNA Gyrase and Human DNA Topoisomerase IIα Mediated DNA Cleavage Assay.
250 ng of relaxed plasmid pBR322 and 20 nM of E. coli DNA gyrase or human DNA topoisomerase IIα were mixed and incubated in 1×gyrase-mediated DNA cleavage buffer (20 mM Tris-HCl pH 8, 50 mM KAc, 10 mM MgCl2, 2 mM DTT, 1 mM ATP, 0.1 mg/mL BSA) at 37° C. for 15 minutes in the presence of an inhibitor or compound. After the incubation, 0.2% SDS and 0.1 mg/ml proteinase K were added to the reaction mixtures to trap the topoisomerase-inhibitor-DNA complex and digest the topoisomerase, respectively, by incubating for an additional 30 min at 37° C. DNA samples were analyzed in 1% agarose gel containing […] ethidium bromide in 1′TAE buffer and photographed under UV light. […] Etoposide was used as a positive control for human DNA topoisomerase IIα-mediated DNA cleavage assays.

E. coli DNA gyrase [4] = molecular target: T1, E. coli DNA gyrase; conditions: read-out: IC50 against E. coli DNA gyrase; cited from earlier work

Row | Molecule | Fluorescent Intensity #1 (E. coli DNA gyrase [1]) | Fluorescent Intensity #2 (E. coli DNA gyrase [1]) | Mean Fluorescent Intensity (E. coli DNA gyrase [1]) | hit in HTS pilot screen (inhibition ≥50% cutoff) (E. coli DNA gyrase [1]) | also measured
1 | O=C[C@H](O)[C@@H](O)[C@@H](O)[C@H](O)CO [D-galactose] | 4111 | 6277 | 5194 | – | –
2 | O=C[C@H](O)[C@@H](O)[C@H](O)[C@H](O)CO [D-glucose] | 4444 | 5984 | 5214 | – | –
3 | O=C[C@H](O)[C@@H](O)[C@@H](O)CO [L-arabinose] | 4824 | 7032 | 5928 | – | –
4 | CCCCCCCCCCCCOS(=O)(=O)[O-].[Na+] [SDS, sodium dodecyl sulfate] | – | – | – | – | effect on T5 exonuclease activity (in words) (T5 exonuclease; 50 nM T5E, FIG. 2D/2E, SDS low concentrations, sarkosyl e.g. 0.015%): completely inhibited T5 exonuclease activity; detergent concentration that inhibits T5 exonuclease (T5 exonuclease; FIG. 3): ≥ 0.05%
5 | CC1(C)S[C@@H]2[C@H](NC(=O)[C@H](N)c3ccccc3)C(=O)N2[C@H]1C(=O)O [ampicillin] | – | – | – | – | fluorescence intensity of the DNA samples (in words) (E. coli DNA gyrase [2]): high
6 | CC[C@H](C)[C@H](N)C1=N[C@H](C(=O)N[C@@H](CC(C)C)C(=O)N[C@H](CCC(=O)O)C(=O)N[C@H](C(=O)N[C@H]2CCCCNC(=O)[C@H](CC(N)=O)NC(=O)[C@@H](CC(=O)O)NC(=O)[C@H](Cc3cnc[nH]3)NC(=O)[C@@H](Cc3ccccc3)NC(=O)[C@H]([C@@H](C)CC)NC(=O)[C@@H](CCCN)NC2=O)[C@@H](C)CC)CS1 [bacitracin] ({Ileψ(thiazoline)Cys}-L[dE]IK[dOrn]I[dF]H[dD]N; lactam 4-C) | 7743 | 6533 | 7138 | – | –
7 | CCN(CC)CCCC(C)Nc1ccnc2cc(Cl)ccc12 (stereo not shown) [chloroquine] | – | 8002 | – | – | –
8 | COc1cccc2c1C(=O)c1c(O)c3c(c(O)c1C2=O)C[C@@](O)(C(=O)CO)C[C@@H]3O[C@H]1C[C@H](N)[C@H](O)[C@H](C)O1 [doxorubicin] | – | – | – | hits and false positive | gyrase-mediated DNA cleavage / gyrase poisoning (in words) (E. coli DNA gyrase [3]): did not cause gyrase-mediated DNA cleavage; effect on SYBR Green fluorescence intensity (in words) (E. coli DNA gyrase [2]): quenched
9 | CS[C@H]1SC[C@H]2C(=O)N(C)[C@@H](C(C)C)C(=O)OC[C@@H](NC(=O)c3cnc4ccccc4n3)C(=O)N[C@@H](C)C(=O)N(C)[C@@H]1C(=O)N(C)[C@@H](C(C)C)C(=O)OC[C@@H](NC(=O)c1cnc3ccccc3n1)C(=O)N[C@@H](C)C(=O)N2C [echinomycin] | – | – | – | – | fluorescence intensity compared with negative controls (in words) (E. coli DNA gyrase [1]): significant low fluorescence signals; gyrase-mediated DNA cleavage / gyrase poisoning (in words) (E. coli DNA gyrase [3]): do not possess gyrase poisoning properties; effect on SYBR Green fluorescence intensity (in words) (E. coli DNA gyrase [2]): did not reduce the fluorescence intensity
10 | CCN1CCN(c2cc3c(cc2F)c(=O)c(C(=O)O)cn3C2CC2)CC1 [enrofloxacin] | – | – | – | hits | –
11 | CCOc1ccc2nc3cc(N)ccc3c(N)c2c1 [etharcridine] | – | – | – | – | fluorescence intensity compared with negative controls (in words) (E. coli DNA gyrase [1]): significant low fluorescence signals; gyrase-mediated DNA cleavage / gyrase poisoning (in words) (E. coli DNA gyrase [3]): do not possess gyrase poisoning properties; effect on SYBR Green fluorescence intensity (in words) (E. coli DNA gyrase [2]): did not reduce the fluorescence intensity
12 | CCn1cc(C(=O)O)c(=O)c2cc(F)c(N3CCNC(C)C3)c(F)c21 (stereo not shown) [lomefloxacin] | – | – | – | hits | –
13 | CCn1cc(C(=O)O)c(=O)c2ccc(C)nc21 [nalidixic acid] | – | – | – | hits | fluorescence intensity compared with negative controls (in words) (E. coli DNA gyrase [1]): much lower; pIC50 (E. coli DNA gyrase [4]): < 4.30
14 | CCn1cc(C(=O)O)c(=O)c2cc(F)c(N3CCNCC3)cc21 [norfloxacin] | – | – | – | hits | –
15 | CCn1cc(C(=O)O)c(=O)c2cc3c(cc21)OCO3 [oxolinic acid] | – | – | – | hits | –
16 | Nc1ccc(S(N)(=O)=O)cc1 [sulfanilamide] | – | – | – | – | fluorescence intensity of the DNA samples (in words) (E. coli DNA gyrase [2]): high
17 | Cc1ccc(C(=O)Nc2ccc(S(=O)(=O)O)c3cc(S(=O)(=O)O)cc(S(=O)(=O)O)c23)cc1NC(=O)c1cccc(NC(=O)Nc2cccc(C(=O)Nc3cc(C(=O)Nc4ccc(S(=O)(=O)O)c5cc(S(=O)(=O)O)cc(S(=O)(=O)O)c45)ccc3C)c2)c1 [suramin] | – | – | – | – | fluorescence intensity compared with negative controls (in words) (E. coli DNA gyrase [1]): significant low fluorescence signals; gyrase-mediated DNA cleavage / gyrase poisoning (in words) (E. coli DNA gyrase [3]): do not possess gyrase poisoning properties; effect on SYBR Green fluorescence intensity (in words) (E. coli DNA gyrase [2]): did not reduce the fluorescence intensity
18 | CN(C)[C@@H]1C(O)=C(C(N)=O)C(=O)[C@@]2(O)C(O)=C3C(=O)c4c(O)cccc4[C@@](C)(O)[C@H]3C[C@@H]12 [tertracycline] | 9594 | 9920 | 9757 | – | –
19 | CC[C@@]1(O)C(=O)OCc2c1cc1n(c2=O)Cc2cc3c(CN(C)C)c(O)ccc3nc2-1 [topotecan] | – | – | – | – | fluorescence intensity compared with negative controls (in words) (E. coli DNA gyrase [1]): significant low fluorescence signals; gyrase-mediated DNA cleavage / gyrase poisoning (in words) (E. coli DNA gyrase [3]): do not possess gyrase poisoning properties; effect on SYBR Green fluorescence intensity (in words) (E. coli DNA gyrase [2]): did not reduce the fluorescence intensity
20 | polymyxin B sulfate salt | 6067 | 10508 | 8287.5 | – | fluorescence intensity of the DNA samples (in words) (E. coli DNA gyrase [2]): high
